Laboratory results as given in patent publication US9265253B2, “Use of macrocyclic picolinamides as fungicides” (DOW AGROSCIENCES LLC, priority 2013, dated 2016).
Like-named read-outs stand apart in the source and are kept apart here.

How the values were obtained:
Format in all cases: in vivo
[1] = test system: Puccinia triticina; Synonym: Puccinia recondite f. Sp. Tritici; assay: Wheat Brown Rust (PUCCRT) disease control; settings: Puccinia triticina, topical; for pest or weed control at 100 ppm: rate 100 ppm
In short: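 Brown rust on first-leaf Yuma wheat: spore inoculation before or after spray application (acetone/Triton X-100 solution, or EC with Trycol in track spray), overnight 100% RH at 22 °C, disease developed at 24 °C. Severity scored 0–100% and converted to percent control against untreated.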

Phakopsora pachyrhizi = assay: Asian Soybean Rust (PHAKPA) disease control; settings: Phakopsora pachyrhizi, topical
In short: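 Compounds in acetone diluted with nine volumes water containing 0.011% Tween 20, sprayed to run-off on two-week-old Williams 82 soybean seedlings, inoculated 3 days before or 1 day after treatment. Plants held 24 h in dark dew room at 22 °C, 100% RH, then at 23 °C; disease severity scored on sprayed leaves.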

[2] = test system: Mycosphaerella graminicola; Anamorph: Septoria tritici; assay: Leaf Blotch of Wheat (SEPTTR) disease control; settings: Zymoseptoria tritici; for pest or weed control at 100 ppm: rate 100 ppm
In short: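 Wheat seedlings (Yuma, first leaf emerged) were sprayed to run-off with compound in acetone/water (1:9, 110 ppm Triton X-100) and inoculated with Septoria tritici spores before or after treatment. Disease severity (0–100%) was scored once untreated first leaves were fully symptomatic; control was calculated relative to untreated plants.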

Uncinula necator = assay: Grape Powdery Mildew (UNCINE) disease control; settings: Erysiphe necator, topical, 24 h, 1 Day Protectant, read-out: Disease Control UNCINE 1 DP
In short: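 Month-old Carignane grape seedlings were sprayed to run-off with compound in acetone diluted 1:9 in water containing 110 ppm Triton X-100, then inoculated 24 h later by shaking spores from infected leaves. Plants were held in a greenhouse at 20 °C until disease developed, and severity (0–100%) was scored with control calculated relative to untreated plants.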

[3] = 24 h, 1 Day Protectant, read-out: PUCCRT 1 DP disease control
[4] = 24 h, 1 Day Protectant, rate 121.5 g/H, read-out: PUCCRT 1 DP disease control
[5] = 72 h, 3 Day Curative, read-out: PUCCRT 3 DC disease control
[6] = 72 h, 3 Day Curative, rate 121.5 g/H, read-out: PUCCRT 3 DC disease control
[7] = 24 h, 1 Day Protectant, read-out: Disease Control PHAKPA 1DP
[8] = 72 h, 3 Day Curative, read-out: Disease Control PHAKPA 3DC
[9] = 24 h, 1 Day Protectant, read-out: SEPTTR 1 DP disease control
[10] = 24 h, 1 Day Protectant, rate 121.5 g/H, read-out: SEPTTR 1 DP disease control
[11] = 72 h, 3 Day Curative, read-out: SEPTTR 3 DC disease control
[12] = 72 h, 3 Day Curative, rate 121.5 g/H, read-out: SEPTTR 3 DC disease control

| SMILES | pest or weed control at 100 ppm [1, 3] | pest or weed control at 121.5 g/ha [1, 4] | pest or weed control at 100 ppm [1, 5] | pest or weed control at 121.5 g/ha [1, 6] | pest or weed control at 25 ppm (Phakopsora pachyrhizi; [7]) | pest or weed control at 25 ppm (Phakopsora pachyrhizi; [8]) | pest or weed control at 100 ppm [2, 9] | pest or weed control at 121.5 g/ha [2, 10] | pest or weed control at 100 ppm [2, 11] | pest or weed control at 121.5 g/ha [2, 12] | pest or weed control at 100 ppm (Uncinula necator) | pest or weed control at 121.5 g/ha ([1]; 24 h, Wheat Brown Rust, 1 Day Protectant, rate 121.5 g/H (low volume application), read-out: Disease control PUCCRT 1 DP) | pest or weed control at 121.5 g/ha ([2]; 24 h, Wheat Leaf Blotch, 1 Day Protectant, rate 121.5 g/H (low volume application), read-out: Disease control SEPTTR 1 DP) | pest or weed control at 121.5 g/ha ([2]; 72 h, Wheat Leaf Blotch, 3 Day Curative, rate 121.5 g/H (low volume application), read-out: Disease control SEPTTR 3 DC) |
| --- | --- | --- | --- | --- | --- | --- | --- | --- | --- | --- | --- | --- | --- | --- |
| CCOCC(=O)OCOc1c(OC)ccnc1C(=O)N[C@H]1CCC[C@H](Cc2ccccc2)[C@@H](OCC2CC2)[C@H](C)OC1=O [Compound F173] | 80 to 100% | 80 to 100% | 80 to 100% | 80 to 100% | 80 to 100% | 80 to 100% | 80 to 100% | 80 to 100% | 80 to 100% | 80 to 100% | 0 to 80% |  |  |  |
| CCCO[C@@H]1[C@@H](Cc2ccccc2)CCC[C@H](NC(=O)c2nccc(OC)c2OCOC(=O)COCC)C(=O)O[C@H]1C [Compound F174] | 80 to 100% | 80 to 100% | 80 to 100% | 80 to 100% | 80 to 100% | 0 to 80% | 80 to 100% | 80 to 100% | 80 to 100% | 80 to 100% | 80 to 100% |  |  |  |
| CCOCC(=O)OCOc1c(OC)ccnc1C(=O)N[C@H]1CCC[C@H](CCF)[C@@H](OCC(C)C)[C@H](C)OC1=O [Compound F181] | 80 to 100% | 80 to 100% | 80 to 100% | 80 to 100% | 80 to 100% | 80 to 100% | 80 to 100% | 80 to 100% | 80 to 100% | 80 to 100% | 0 to 80% |  |  |  |
| CCOCC(=O)OCOc1c(OC)ccnc1C(=O)N[C@H]1CCC[C@H](CCOC)[C@@H](Oc2ccccc2)[C@H](C)OC1=O [Compound F183] | 80 to 100% | 80 to 100% | 80 to 100% | 80 to 100% | 80 to 100% | 80 to 100% | 80 to 100% | 80 to 100% | 80 to 100% | 80 to 100% | 80 to 100% |  |  |  |
| CCOCC(=O)OCOc1c(OC)ccnc1C(=O)N[C@H]1CCC[C@H](Cc2ccc(F)cc2F)[C@@H](OC(=O)c2ccco2)[C@H](C)OC1=O [Compound F193] |  |  |  |  | 0 to 80% | 0 to 80% |  |  |  |  | 0 to 80% | 80 to 100% | 80 to 100% | 0 to 80% |
